The subject of assay [1] is S. aureus ATCC 43300 (MRSA). Description: Minimum inhibitory concentration, broth microdilution. It counts as cell-based, Staphylococcus aureus. As to conditions: Staphylococcus aureus; compound alone; S. aureus ATCC 43300 (MRSA); CAMHB, 18 h; read-out: MIC. As for the experimental part:
(§1) The compounds were then analyzed for antibiotic repotentiation activity. […] The tested strains included USA300, which is a common and particularly virulent strain of community-acquired MRSA.
(In general: In broth dilution the organism is exposed to a series of concentrations in liquid medium.)

The test system of assay [2] is S. aureus USA300 (MRSA). The description is as above. It counts as cell-based, Staphylococcus aureus. The following applies: Staphylococcus aureus; compound alone; S. aureus USA300 (MRSA); CAMHB, 18 h; read-out: MIC. The method, then: as §1
The subject of the next assay is S. aureus USA100 (MRSA). Description: microbe, parasite or virus in culture. The format is cell-based, Staphylococcus aureus. The following applies: Staphylococcus aureus, compound alone, CAMHB, 18 h.
Another assay concerns S. aureus USA100 biofilm. Description: Biofilm inhibition, crystal violet assay. The format is cell-based. The following applies: Staphylococcus aureus, S. aureus USA100 (MRSA), 30 h. As for the experimental part:
(§2) A standard static crystal violet assay was used to quantify biofilm inhibition.^45 Cultures of S. aureus or S. epidermidis were grown overnight in TSBG (tryptic soy broth with 5% glucose) at 37° C. with shaking. These cultures were used to inoculate fresh TSBG to a calculated optical density of 0.01 at 600 nm (OD600). […] Untreated aliquots were used as a positive control and water served as a negative control. 100 μl of these suspensions were added to the wells of a 96-well polyvinylchloride microtiter plate. […] After incubation, media was discarded and the plates were washed with water to remove non-adherent cells. Adherent biofilms were stained with 110 μl of crystal violet (0.1% in water) and incubated at room temperature for thirty minutes. The crystal violet staining solution was discarded and plates were washed with water to remove excess stain. The resulting stained biofilms were solubilized with 200 μL of 95% ethanol for 10 minutes. 125 μl of the ethanol solutions were transferred to a clear polystyrene microtiter plate for evaluation. Absorbance at 540 nm was recorded using a BioTek Synergy H1 microplate reader. The absorbance of the negative control lanes was subtracted from the experimental values to account for background staining. Percent inhibition was calculated by comparison of the absorbance values of control versus treated wells under identical conditions.
(§3) Antibiotic resistance and biofilm formation share similar regulatory mechanisms. […] Biofilm inhibition was first assessed in S. aureus 43300, a methicillin-resistant strain (see Table 18). As described in Materials and Methods, a standard crystal violet assay was used to assess biofilm inhibition by the tested compounds. The IC50 is described as the compound concentration required to inhibit 50% of biofilm formation. The standard deviation is calculated from at least 3 independent experiments.
(§4) The biofilm inhibition activity of loratadine was further explored in other strains of S. aureus. Loratadine was capable of inhibiting biofilm formation in all tested strains of S. aureus, including methicillin-resistant and vancomycin-resistant strains.

A further assay concerns S. aureus 29213 biofilm. Kind of assay: Biofilm inhibition, crystal violet assay. It counts as cell-based. The following applies: Staphylococcus aureus, 30 h. As for the experimental part:
as §2, §3, §4

Assay [3] concerns S. aureus NR-50109 biofilm. Kind of assay: Biofilm inhibition, crystal violet assay. The format is cell-based. As to conditions: Staphylococcus aureus, NR50109BIOFILM, S. aureus NR-50109 (methicillin and vancomycin resistant), 30 h. The method, then: as §2, §3, §4
The next assay concerns S. epidermidis 49461. Description: Antibiotic repotentiation (oxacillin MIC with/without compound). It counts as cell-based, Staphylococcus epidermidis. The following applies: +50 μM compound, S. epidermidis 49461. As for the experimental part: The overnight culture was diluted into fresh CAMHB to a concentration of 5×10^5 CFU/ml. […] On the same plate, a standard microdilution MIC with the tested antibiotics and no added compound was also performed to compare the antibiotic MIC in the presence and absence of compound. […] Fold reductions were calculated by dividing the MIC of the antibiotic without compound by the MIC of the antibiotic in the presence of compound.
Antibiotic potentiation in S. epidermidis was also investigated.

For a further assay, the system named is S. aureus 43300 (MRSA). Kind of assay: Antibiotic repotentiation (antibiotic MIC with/without compound). The format is cell-based, Staphylococcus aureus. The following applies: +50 μM compound.
Assay [4] has as its system S. aureus USA300 (MRSA). The description is as above. The following applies: +50 μM compound, S. aureus USA300 (MRSA). The format is cell-based, Staphylococcus aureus.
In assay [5] the test system is S. aureus USA100 pre-formed biofilm. Kind of assay: Biofilm dispersion assay. It counts as cell-based. As to conditions: Staphylococcus aureus, S. aureus USA100 (MRSA). The method, then:
(§5) Overnight cultures of S. aureus or S. epidermidis were subcultured to an OD600 of 0.01 in tryptic soy broth supplemented with 0.5% glucose (TSBG). For USA300Δ/+stk1, TSBG was supplemented with 0.2% xylose to induce transcription of stk1. 100 μl of the culture was distributed into rows 2-11 of a 96-well polyvinylchloride plate. Rows 1 and 12 were filled with 100 μl of sterile water and served as the negative controls. […] After the incubation period, the media was discarded and the plates were washed with water to remove non-adherent cells. Media containing the desired concentrations of compound was prepared and 100 μl was added to the desired rows. Media alone was added as a positive control and sterile water was added as a negative control. The plates were sealed with Glad Press-n-Seal and incubated under stationary conditions for another 24 hours. The media was discarded and plates were washed with water to remove any non-adherent bacteria. 110 μl of an aqueous crystal violet solution (0.1%) was added to each well and allowed to rest at room temperature to stain any biomass. After 30 minutes, the crystal violet solution was discarded and the plates were washed with water. The stained biomass was dissolved in 95% ethanol (200 μl) for 30 minutes and 125 μl was transferred to the corresponding wells of a flat-bottomed polystyrene 96-well plate. The absorbance of each well was measured at 540 nm. The wells that contained only water were used as background and subtracted from wells containing cultures.
(§6) Biofilm dispersion was quantified by calculating the ratio of the absorbance of the treated wells as compared to the untreated wells. These values were plotted and fit to a curve to determine the EC50.
(§7) Loratadine was also tested for the ability to disperse pre-formed biofilms. Biofilm dispersion is reported as an EC50, which is defined as the concentration of compound required to disperse 50% of the preformed biofilm.

For assay [6], the system named is S. aureus 29213 pre-formed biofilm. Description: Biofilm dispersion assay. It counts as cell-based. The following applies: Staphylococcus aureus. The method, then: as §5, §6, §7
Assay [7] has as its system S. aureus 43300 pre-formed biofilm. Description: Biofilm dispersion assay. The format is cell-based. The following applies: Staphylococcus aureus, S. aureus 43300 (MRSA). The method, then:
as §5, §6, §7

Assay [8] deals with S. aureus USA300 pre-formed biofilm. Description: Biofilm dispersion assay. It counts as cell-based. As to conditions: Staphylococcus aureus, S. aureus USA300 (MRSA). As for the experimental part: as §5, §6, §7
Assay [9] relates to S. aureus NR-49120 (VRSA). Kind of assay: microbe, parasite or virus in culture. As to conditions: Staphylococcus aureus, 18 h.
Experimental: Minimum inhibitory concentrations were determined using a standard serial broth microdilution method. […] Mid-log-phase cultures were diluted to a concentration of approximately 5×10^5 CFU/ml in cation-adjusted Mueller-Hinton broth (CAMHB). Wells 2-11 of a 96-well polyvinylchloride microtiter plate were inoculated with 100 μl of bacterial suspension. 100 μl of uninnoculated CAMHB was added to well 12 to serve as a negative control. The top wells were inoculated with 200 μl of bacterial suspension with either antibiotics or compounds added. Serial dilutions were performed in wells 2-10, leaving well 11 to serve as the positive control. The microtiter plates were covered with Press-n-Seal and incubated at 37° C. for 18 hours without agitation. Plates were scored by visual detection of well turbidity.

SMILES strings stand for the structures.

A word on the IC50: it is the concentration that gives 50% inhibition. The EC50 is the concentration at which the effect is half-maximal. The low end stands for an effect from little substance, the high end for a need for much substance. With `CCOC(=O)N1CCC(=C2c3ccc(Cl)cc3CCc3cccnc32)CC1` [Loratadine, ethyl 4-(8-chloro-5,6-dihydrobenzo[1,2]cyclohepta[2,4-b]pyridin-11-ylidene)piperidine-1-carboxylate], the MIC (in assay [1]; with S. aureus USA300 (MRSA) [2]; in the assay with S. aureus USA100 (MRSA); in assay [9]) was over 200 µM in each case. The IC50 in the assay with S. aureus USA100 biofilm amounted to 22.2 ± 6.51 µM; with S. aureus 29213 biofilm it was 25.9 ± 2.36 µM; in assay [3], 19.1 ± 2.87 µM. The “Oxacillin MIC” value amounted to 16 µg/mL with S. epidermidis 49461, 1 µg/mL with S. aureus 43300 (MRSA) (S. aureus ATCC 43300 (MRSA)) and 0.5 µg/mL with S. aureus USA300 (MRSA) [4]. Moreover, the “Fold Reduction” value with S. epidermidis 49461 (oxacillin MIC) came out at 1; in the assay with S. aureus 43300 (MRSA) (oxacillin MIC, S. aureus 43300 (MRSA)), 32; in the assay with S. aureus USA300 (MRSA) [4] (oxacillin MIC), 64. For the same compound, the EC50 is 121 µM in assay [5], over 200 µM in assay [6], over 200 µM in [7] and over 200 µM in assay [8].

Values taken from patent US12115208B2, “Small-molecule adjuvants for antibiotics to address antibiotic resistance” (HIGH POINT UNIVERSITY, priority 2017, dated 2024).
